As usually defined, the IC50 is the midpoint of a concentration-inhibition curve.

SMILES strings stand for the structures. Where two headings read alike, the source gives them in different places.

In this test the target is human DGAT2 (Homo sapiens (Human), UniProt Q96PD7). The experiment in a line: DGAT2 Enzymatic Activity Assay. The settings on record: 13C18-triolein product by LC/MS/MS.
Setting [1] is: Human DGAT2 IC50, hDGAT2 membrane prep from Sf-9 cells.
[2] abbreviates: read-out: Human DGAT2 IC50, hDGAT2 membrane prep from Sf-9 cells.

Chain of human DGAT2 (Q96PD7 whole entry): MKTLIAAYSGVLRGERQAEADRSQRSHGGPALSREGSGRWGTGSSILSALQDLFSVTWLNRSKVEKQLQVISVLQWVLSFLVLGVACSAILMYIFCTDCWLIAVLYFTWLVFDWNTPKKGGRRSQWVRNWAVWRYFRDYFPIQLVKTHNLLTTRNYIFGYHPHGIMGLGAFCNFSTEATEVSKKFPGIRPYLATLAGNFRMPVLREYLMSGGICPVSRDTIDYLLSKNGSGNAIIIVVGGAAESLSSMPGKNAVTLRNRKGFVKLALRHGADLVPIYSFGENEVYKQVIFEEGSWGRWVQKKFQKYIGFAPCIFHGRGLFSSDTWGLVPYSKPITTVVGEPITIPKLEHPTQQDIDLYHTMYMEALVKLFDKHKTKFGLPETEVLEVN
Procedure: Sf-9 insect cells were maintained in Grace's insect cell culture medium with 10% heated-inactivated fetal bovine serum, 1% Pluronic F-68 and 0.14 μg/ml Kanamycine sulfate at 27° C. in a shaker incubator. After infection with untagged baculovirus expressing human DGAT2 (hDGAT2) at multiplicity of infection (MOI) 3 for 48 hours, cells were harvested. Cell pellets were suspended in buffer containing 10 mM Tris-HCl pH 7.5, 1 mM EDTA, 250 mM sucrose and Complete Protease Inhibitor Cocktail (Sigma Aldrich), and sonicated on ice. Cell debris were removed by centrifugation at 2000×g for 15 minutes. Membrane fractions were isolated by ultracentrifugation (100,000×g), resuspended in the same buffer, and frozen (−80° C.) for later use. The protein concentration was determined with the Pierce™ BCA Protein Assay Kit (Thermo Fisher Scientific).
LC/MS/MS analyses were performed using Thermal Fisher's LX4-TSQ Vantage system. This system consists of an Agilent binary high-performance liquid chromatography (HPLC) pump and a TSQ Vantage triple quadrupole MS/MS instrument. For each sample, 2 μL samples from the top organic layer of in-plate liquid-liquid extraction were injected onto a Thermo Betabasic C4 column (2.1 mm×20 mm, 5 μm particle size). The samples were then eluted using the following conditions; mobile phase: Isopropanol: acetonitrile/10 mM ammonium formate=50/35/15 (v/v/v), flow rate: 0.8 mL/min, temperature: 25° C. Data was acquired in positive mode using a heated electrospray ionization (HESI) interface. […] The peak area was integrated by Xcalibur Quan software. The ratio between the ^13C18 triolein generated in the reaction and spiked in internal standard ^13C21-triolein was used to generate percentage inhibition and IC50 values. […] DGAT2 activity was determined by measuring the amount of enzymatic product ^13C18-triolein (^13C-1,2,3-Tri(cis-9-octadecenoyl)glycerol) using the membrane prep mentioned above. The assay was carried out in ABgene 384-well assay plates in a final volume of 25 μL at rt.

For the compound `Cc1cc2nc(C(=O)NC3(C)CCS(=O)(=O)CC3)n(C)c2nc1Oc1ncc(Cl)cc1OCC(F)F` [Example 45, 5-((5-chloro-3-(2,2-difluoroethoxy)pyridin-2-yl)oxy)-3,6-dimethyl-N-(4-methyl-1,1-dioxidotetrahydro-2H-thiopyran-4-yl)-3H-imidazo[4,5-b]pyridine-2-carboxamide], the IC50 under setting [1] turned out to be 2.2 nM. Consider `Cn1c(C(=O)NC2(C)CCS(=O)(=O)CC2)nc2ccc(Oc3ncc(F)cc3OCC(C)(F)F)nc21` [Example 32, 5-[[3-(2,2-difluoropropoxy)-5-fluoro-2-pyridyl]oxy]-3-methyl-N-(4-methyl-1,1-dioxo-thian-4-yl)imidazo[4,5-b]pyridine-2-carboxamide], for which, under setting [2], the IC50 was 236 nM.

`Cn1c(C(=O)NC2(C)CCS(=O)(=O)CC2)nc2ncc(Oc3ncc(Cl)cc3OCC(F)F)cc21` [Example 82, 6-[[5-Chloro-3-(2,2-difluoroethoxy)-2-pyridyl]oxy]-1-methyl-N-(4-methyl-1,1-dioxo-thian-4-yl)imidazo[4,5-b]pyridine-2-carboxamide] yielded a half-maximal inhibitory concentration (IC50) under setting [1] of 1.2 nM. Take `Cc1c(Oc2ncc(F)cc2OCC(F)(F)F)ncc2nc(C(=O)NC3(C)CCS(=O)(=O)CC3)n(C)c12` [Example 79, 6-[[5-fluoro-3-(2,2,2-trifluoroethoxy)-2-pyridyl]oxy]-1,7-dimethyl-N-(4-methyl-1,1-dioxo-thian-4-yl)imidazo[4,5-c]pyridine-2-carboxamide]: the 50% inhibitory concentration (IC50) under setting [2] was 58 nM. Compound `Cn1c(C(=O)NC2(C)CCS(=O)(=O)CC2)nc2c(F)cc(Oc3ncc(Cl)cc3OCC(F)F)cc21` [Example 27, 6-((5-chloro-3-(2,2-difluoroethoxy)pyridin-2-yl)oxy)-4-fluoro-1-methyl-N-(4-methyl-1,1-dioxidotetrahydro-2H-thiopyran-4-yl)-1H-benzo[d]imidazole-2-carboxamide] registered an IC50 under setting [1] of 2.7 nM.

For `Cc1cc2nc(C(=O)NC3(C)CCS(=O)(=O)CC3)n(C)c2nc1Oc1ncc(F)cc1OCC(F)F` [Example 48, 5-[[3-(2,2-difluoroethoxy)-5-fluoro-2-pyridyl]oxy]-3,6-dimethyl-N-(4-methyl-1,1-dioxo-thian-4-yl)imidazo[4,5-b]pyridine-2-carboxamide], the half-inhibitory concentration (IC50) under setting [2] was determined as 6.3 nM. In turn, `Cn1c(C(=O)NC2(C)CCS(=O)(=O)CC2)nc2cnc(Oc3ncc(Cl)cc3OCC(F)F)c(F)c21` [Example 76, 6-[[5-Chloro-3-(2,2-difluoroethoxy)-2-pyridyl]oxy]-7-fluoro-1-methyl-N-(4-methyl-1,1-dioxo-thian-4-yl)imidazo[4,5-c]pyridine-2-carboxamide] returned an IC50 under setting [1] of 3.3 nM. As for `O=C(N[C@H]1CCOC1)c1nc2ccc(Oc3ncccc3OCC(F)(F)F)cc2s1` [Example 93, N-[(3S)-tetrahydrofuran-3-yl]-6-[[3-(2,2,2-trifluoroethoxy)-2-pyridyl]oxy]-1,3-benzothiazole-2-carboxamide], the IC50 under setting [2] came out at 472 nM.

Under setting [1], `Cn1c(C(=O)NC2(C)CCS(=O)(=O)CC2)nc2ccc(OCC(CC(F)(F)F)OC(F)F)nc21` (single isomer, unassigned) [Example 62b, 5-[2-(difluoromethoxy)-4,4,4-trifluoro-butoxy]-3-methyl-N-(4-methyl-1,1-dioxo-thian-4-yl)imidazo[4,5-b]pyridine-2-carboxamide] registered an IC50 of 163 nM.

Take `Cn1c(C(=O)NC2(C)CCS(=O)(=O)CC2)nc2cc(F)c(Oc3ncc(F)cc3OCC(C)(F)F)nc21` [Example 43, 5-[[3-(2,2-difluoropropoxy)-5-fluoro-2-pyridyl]oxy]-6-fluoro-3-methyl-N-(4-methyl-1,1-dioxo-thian-4-yl)imidazo[4,5-b]pyridine-2-carboxamide]: the 50% inhibitory concentration (IC50) under setting [2] turned out to be 34 nM. With `CCC(COc1ccc2nc(C(=O)NC3(C)CCS(=O)(=O)CC3)n(C)c2n1)OCC(C)(F)F` (stereo not shown) [Example 61, 5-[2-(2,2-difluoropropoxy)butoxy]-3-methyl-N-(4-methyl-1,1-dioxo-thian-4-yl)imidazo[4,5-b]pyridine-2-carboxamide], the IC50 under setting [2] is 44 nM. `Cn1c(C(=O)NC2(C)CCS(=O)(=O)CC2)nc2ccc(OCC(CC(F)(F)F)OCC(F)F)nc21` (single isomer, unassigned) [Example 63a, 5-[2-(2,2-difluoroethoxy)-4,4,4-trifluoro-butoxy]-3-methyl-N-(4-methyl-1,1-dioxo-thian-4-yl)imidazo[4,5-b]pyridine-2-carboxamide] displayed a half-maximal inhibitory concentration (IC50) under setting [1] of 50 nM. `Cn1c(C(=O)NC2(C)CS(=O)(=O)C2)nc2cnc(Oc3ncc(Cl)cc3OCC(F)F)cc21` [Example 70, 6-[[5-chloro-3-(2,2-difluoroethoxy)-2-pyridyl]oxy]-1-methyl-N-(3-methyl-1,1-dioxo-thietan-3-yl)imidazo[4,5-c]pyridine-2-carboxamide]: the IC50 under setting [2] turned out to be 11 nM.

Compound `Cn1c(C(=O)NC2(C)CCS(=O)(=O)CC2)nc2ccc(OCC(CC(F)(F)F)OCC(F)F)nc21` (single isomer, unassigned) [Example 63b, 5-[2-(2,2-difluoroethoxy)-4,4,4-trifluoro-butoxy]-3-methyl-N-(4-methyl-1,1-dioxo-thian-4-yl)imidazo[4,5-b]pyridine-2-carboxamide] returned an IC50 under setting [1] of 0.8 nM. Turning to `CC1(NC(=O)c2nc3ccc(Oc4ncc(Cl)cc4OCC(F)F)nc3n2CC2(F)COC2)CCS(=O)(=O)CC1` [Example 57, 5-((5-chloro-3-(2,2-difluoroethoxy)pyridin-2-yl)oxy)-3-((3-fluorooxetan-3-yl)methyl)-N-(4-methyl-1,1-dioxidotetrahydro-2H-thiopyran-4-yl)-3H-imidazo[4,5-b]pyridine-2-carboxamide], under setting [2], the IC50 amounted to 183 nM. As for `Cn1c(C(=O)NC2(C)CCS(=O)(=O)CC2)nc2ccc(OCC(OCC(F)F)C(F)(F)F)nc21` (single isomer, unassigned) [Example 64b, 5-[2-(2,2-difluoroethoxy)-3,3,3-trifluoro-propoxy]-3-methyl-N-(4-methyl-1,1-dioxo-thian-4-yl)imidazo[4,5-b]pyridine-2-carboxamide], under setting [1], inhibition was half-maximal at 3.3 nM (IC50). With `CC1(NC(=O)c2nc3ccc(Oc4ncccc4OCC(F)(F)F)cc3o2)CCS(=O)(=O)CC1` [Example 2, N-(4-methyl-1,1-dioxo-thian-4-yl)-6-[[3-(2,2,2-trifluoroethoxy)-2-pyridyl]oxy]-1,3-benzoxazole-2-carboxamide], the half-maximal inhibitory concentration (IC50) under setting [2] is 47 nM.

Regarding `CC1(NC(=O)c2nc3ccc(Oc4ncc(Cl)cc4OCC(F)(F)F)cc3o2)CC(F)(F)C1` [Example 4], the half-inhibitory concentration (IC50) under setting [2] was 236 nM. In turn, `Cn1c(C(=O)NC2(C)CCS(=O)(=O)CC2)nc2ccc(Oc3ncc(Cl)cc3OCC(F)(F)F)c(F)c21` [Example 21, 6-((5-Chloro-3-(2,2,2-trifluoroethoxy)pyridin-2-yl)oxy)-7-fluoro-1-methyl-N-(4-methyl-1,1-dioxidotetrahydro-2H-thiopyran-4-yl)-1H-benzo[d]imidazole-2-carboxamide] registered a half-maximal inhibitory concentration (IC50) under setting [1] of 2.3 nM. With `Cn1c(C(=O)NC2(C)CCS(=O)(=O)CC2)nc2cnc(Oc3ncc(F)cc3OCC(F)(F)F)c(F)c21` [Example 77, 7-fluoro-6-[[5-fluoro-3-(2,2,2-trifluoroethoxy)-2-pyridyl]oxy]-1-methyl-N-(4-methyl-1,1-dioxo-thian-4-yl)imidazo[4,5-c]pyridine-2-carboxamide], under setting [2], the 50% inhibitory concentration (IC50) was 48 nM.

The compound `CCC(COc1ccc2nc(C(=O)NC3(C)CCS(=O)(=O)CC3)n(C)c2n1)OCC(F)F` (stereo not shown) [Example 60, 5-[2-(2,2-Difluoroethoxy)butoxy]-3-methyl-N-(4-methyl-1,1-dioxo-thian-4-yl)imidazo[4,5-b]pyridine-2-carboxamide] showed an IC50 under setting [1] of 3 nM. On to `CO[C@]1(C(F)(F)F)C[C@H](NC(=O)c2nc3ccc(Oc4ncc(Cl)cc4OCC(F)(F)F)cc3o2)C1` [Example 6, 6-[[5-chloro-3-(2,2,2-trifluoroethoxy)-2-pyridyl]oxy]-N-[3-methoxy-3-(trifluoromethyl)cyclobutyl]-1,3-benzoxazole-2-carboxamide], for which the IC50 under setting [2] amounted to 900 nM. Compound `CC1(NC(=O)c2nc3cc(Oc4ncccc4OCC(F)(F)F)ccc3o2)CCS(=O)(=O)CC1` [Example 10, N-(4-methyl-1,1-dioxidotetrahydro-2H-thiopyran-4-yl)-5-((3-(2,2,2-trifluoroethoxy)pyridin-2-yl)oxy)benzo[d]oxazole-2-carboxamide] returned an IC50 under setting [1] of 941 nM. Same read-out and setting: under `O=C(N[C@H]1CCCC(F)(F)[C@@H]1O)c1nc2ccc(Oc3ncc(Cl)cc3OCC(F)(F)F)cc2o1` [Example 1, 6-[[5-chloro-3-(2,2,2-trifluoroethoxy)-2-pyridyl]oxy]-N-[(1S,2R)-3,3-difluoro-2-hydroxy-cyclohexyl]-1,3-benzoxazole-2-carboxamide] stands 570 nM. Regarding `Cn1c(C(=O)NC2(C)CCS(=O)(=O)CC2)nc2cc(F)c(Oc3ncc(F)cc3OCC(F)(F)F)nc21` [Example 42, 6-fluoro-5-((5-fluoro-3-(2,2,2-trifluoroethoxy)pyridin-2-yl)oxy)-3-methyl-N-(4-methyl-1,1-dioxidotetrahydro-2H-thiopyran-4-yl)-3H-imidazo[4,5-b]pyridine-2-carboxamide], the 50% inhibitory concentration (IC50) under setting [2] was 2.2 nM. Same read-out and setting: as for `CC1(NC(=O)c2nc3ccc(Oc4ncc(Cl)cc4OCC(F)(F)F)cc3o2)CCC(F)(F)CC1` [Example 9, 6-[[5-chloro-3-(2,2,2-trifluoroethoxy)-2-pyridyl]oxy]-N-(4,4-difluoro-1-methyl-cyclohexyl)-1,3-benzoxazole-2-carboxamide], the figure is 29 nM.

As for `Cn1c(C(=O)NC2(C)CCS(=O)(=O)CC2)nc2cnc(OCc3ncc(F)cc3OCC(F)(F)F)cc21` [Example 81, 6-[[5-Fluoro-3-(2,2,2-trifluoroethoxy)-2-pyridyl]methoxy]-1-methyl-N-(4-methyl-1,1-dioxo-thian-4-yl)imidazo[4,5-c]pyridine-2-carboxamide], the IC50 under setting [2] was determined as 262 nM. On to `Cc1c(Oc2ncc(Cl)cc2OCC(F)(F)F)ccc2c1nc(C(=O)NC1(C)CCS(=O)(=O)CC1)n2C` [Example 26, 5-((5-chloro-3-(2,2,2-trifluoroethoxy)pyridin-2-yl)oxy)-1,4-dimethyl-N-(4-methyl-1,1-dioxidotetrahydro-2H-thiopyran-4-yl)-1H-benzo[d]imidazole-2-carboxamide], for which, under setting [1], the IC50 came out at 44 nM.

The record behind these values is US20240254114A1, “PREPARATION OF FUSED AZOLE DERIVATIVES AS NOVEL DIACYLGLYCERIDE 0-ACYLTRANSFERASE 2 INHIBITORS” (Merck Sharp & Dohme LLC, priority 2022, published 2024).
